Assay results taken from paper PMC12169104, “Towards the development of supramolecular self-associating amphiphiles as antibiofilm agents against Pseudomonas aeruginosa and Candida albicans biofilms” (Journal of Materials Chemistry. B, 2025).
Values joined by “and” are separate entries in the source; they are usually repeats but may differ in a detail not shown here. Identical values can stand only once. Marks after values point to notes of the source that are not given here.

Legend:
[1] = Calcein loaded vesicle leakage (lysis) assay; settings: 298 K, PBS buffer 5% EtOH
Description: To gauge the activity and selectivity of 1–5 and a–j against microbial membranes, a series of synthetic model vesicle systems were prepared, containing a variety of common bacterial membrane phospholipid headgroups: (i) phosphatidylglycerol (PG) only; (ii) phosphatidylethanolamine (PE) : PG 3 : 1 and; (iii) PE : PG 1 : 1.[50] Following our previous work in this area, we first quantified the ability of 1–5 and co-formulations a–j to lyse the aforementioned synthetic model phospholipid vesicle systems.[49] […] Here the fluorescent dye calcein was loaded into synthetic vesicles at a concentration where the dye self-quenches (70 mM). When the vesicle is lysed, the calcein is released to the extravesicular solution, effectively reducing calcein concentration to a point where the dye no longer undergoes self-quenching. Through comparison to a positive control experiment, in which 100% vesicle lysis was achieved through the addition of 2% X-100 Triton, the proportion of vesicles to undergo lysis in the presence or absence of SSA can be calculated. The data was then fitted to the Hill or linear equation to determine the effective concentration of SSA needed to lyse 50% of the vesicles present in solution (EC50) (Section S14, ESI ^†).[51] […]
Preparation of vesicles: All lipids were purchased as powder stocks from Avanti Polar Lipids. Lipid vesicles were prepared according to standard procedures. Each phospholipid (~ 20 mg) was dissolved in chloroform: methanol 3:1 (~ 10 mL) and the solvent was removed under reduced pressure. The thin film of dried lipid was further dried in vacuo overnight. Lipid films were resuspended in the desired buffer and subjected to 10 freeze-thaw cycles in liquid nitrogen and extruded 19 times through a 200 nm polycarbonate membrane.
Preparation of calcein loaded vesicles:2 Lipid films were resuspended in calcein dye (70 mg calcein, 865 µL deionized H2O, 135 µL NaOH (2 M), with NaOH added dropwise until calcein dissolved) and subjected to 10 freeze-thaw cycles in liquid nitrogen and extruded 19 times through a 200 nm polycarbonate membrane. The suspension was run down a size exclusion column packed with sephadex G-50 using 1 X PBS. The hydrodynamic dimeter of the lipids was monitored using an Anton Paar LitesizerTM 500 to ensure the separation of free and entrapped calcein. Phospholipid concentration was adjusted to 60 µM for vesicle leakage experiments.
Vesicle leakage assay: Black bottom 96-well plates were prepared by serially diluting desired SSA in a EtOH: H2O 1:19 solution across the plate, the appropriate lipid solution (100 µL, 60 µM) was added to each well to give a total well volume of 200 µL. A solution of 2 % Triton X-100 was used for a 100 % lysis control and a EtOH: H2O 1:19 solution was used as a 0 % lysis control. Fluorescent measurements were taken at 25 °C using an excitation value of 495 nm and an optimised gain of 800. Data were acquired in endpoint mode. […]
For fluorescent labelling, the desired vesicles were pre-incubated with DPH (10 µM) at 60 °C for 1 hour.
Membrane fluidity assay: Black bottom 96-well plates were prepared by serially diluting desired SSA in a EtOH: H2O 1:19 solution across the plate, the appropriate DPH labelled vesicles (100 µL, 60 µM) were added to each well to give a total well volume of 200 µL. FP measurements were taken at 25 °C using a 355 nm filter for excitation and a 430 m for emission. […]
Figure S168 – Average (n=3) […] readings of calcein loaded PE:PG 3:1 lipid vesicles (λem = 515 nm) following the addition of j at varying concentrations. Lysis value is triton (1 %). Blue = 1 minute, purple = 5 minutes, pink = 10 minutes, orange = 15 minutes, red = 20 minutes. Error = standard […]
Section S14: Determination of vesicle lysis EC50 values
Data was originally fitted to the Hill equation using origin software. If the fitting of these vesicle lysis data to the Hill equation failed then the data were fitted to a linear line of best fit to estimate EC50 […]
above 0.1 mM. […]

[2] = Tensiometry: critical aggregation concentration and surface tension; format: physicochemical; settings: H2O:EtOH 19:1, approx. 291 K; for CAC / CAC (mM): surface tension measurements, bounds represent the limit of solubility; for Surface tension at limit of solubility: footnote c, CAC not reached
[3] = Quantitative 1H NMR spectroscopy (higher order self-association); format: physicochemical; settings: D2O:EtOH 19:1, 2.78 mM, 298 K; proportion of compound to become NMR silent
[4] = PE:PG 1:1 vesicles, 1 min (Timepoint 1 in Table S14)
[5] = PE:PG 1:1 vesicles, 5 min (Timepoint 2 in Table S14)
[6] = PE:PG 1:1 vesicles, 10 min (Timepoint 3 in Table S14)
[7] = PE:PG 1:1 vesicles, 15 min (Timepoint 4 in Table S14)
[8] = PE:PG 1:1 vesicles, 20 min (Timepoint 5 in Table S14)
[9] = PE:PG 3:1 vesicles, 1 min (Timepoint 1 in Table S13)
[10] = PE:PG 3:1 vesicles, 5 min (Timepoint 2 in Table S13)
[11] = PE:PG 3:1 vesicles, 10 min (Timepoint 3 in Table S13)
[12] = PE:PG 3:1 vesicles, 15 min (Timepoint 4 in Table S13)
[13] = PE:PG 3:1 vesicles, 20 min (Timepoint 5 in Table S13)
[14] = PG vesicles, 1 min (Timepoint 1 in Table S12), total molar concentration
[15] = PG vesicles, 5 min (Timepoint 2 in Table S12)
[16] = PG vesicles, 10 min (Timepoint 3 in Table S12)
[17] = PG vesicles, 15 min (Timepoint 4 in Table S12)
[18] = PG vesicles, 20 min (Timepoint 5 in Table S12)

Row | SMILES | EC50 [1, 4] | EC50 [1, 5] | EC50 [1, 6] | EC50 [1, 7] | EC50 [1, 8] | EC50 [1, 9] | EC50 [1, 10] | EC50 [1, 11] | EC50 [1, 12] | EC50 [1, 13] | EC50 [1, 14] | EC50 [1, 15] | EC50 [1, 16] | EC50 [1, 17] | EC50 [1, 18] | CAC [2] | CAC (mM) [2] | Surface tension at limit of solubility [2] | Quantitative 1H NMR (%) Anion [3] | Quantitative 1H NMR (%) Cation [3]
1 | O=S(=O)(O)CCCNC(=S)Nc1ccc(C(F)(F)F)cc1 [SSA 1] | 0.055 mM and 0.0549 mM | 0.01 mM and 0.0095 mM | 0.0048 mM | 0.002 mM | 0.002 mM and 0.0015 mM | 0.0302 mM | 0.009 mM | 0.004 mM | 0.002 mM and 0.0022 mM | 0.002 mM and 0.0017 mM | 0.0677 mM | 0.032 mM | 0.0156 mM | 0.0062 mM | 0.0037 mM | – | – | – | 33% | 31%
2 | Cc1ccc2nc(-c3ccc(NC(=O)NCS(=O)(=O)O)cc3)sc2c1 [SSA 3] | > 1.5 mM | > 1.5 mM | 1.33 mM | 0.953 mM | 0.829 mM | > 1.5 mM | > 1.5 mM | > 1.5 mM | > 1.5 mM | > 1.5 mM | 0.867 mM | 0.615 mM | 0.529 mM | 0.15 mM | 0.17 mM | – | – | – | 37% | 37%

The remaining compounds from weak to strong by EC50 [1, 6], led by results:

Row | EC50 [1, 4] | EC50 [1, 5] | EC50 [1, 6] | EC50 [1, 7] | EC50 [1, 8] | EC50 [1, 9] | EC50 [1, 10] | EC50 [1, 11] | EC50 [1, 12] | EC50 [1, 13] | EC50 [1, 14] | EC50 [1, 15] | EC50 [1, 16] | EC50 [1, 17] | EC50 [1, 18] | CAC [2] | CAC (mM) [2] | Surface tension at limit of solubility [2] | Quantitative 1H NMR (%) Anion [3] | Quantitative 1H NMR (%) Cation [3] | SMILES
3 | > 1.5 mM | > 1.5 mM | 0.948 mM | 0.675 mM | 0.574 mM | > 1.5 mM | > 1.5 mM | 1.18 mM | 0.95 mM | 0.91 mM | 1.02 mM | 0.396 mM | 0.341 mM | 0.288 mM | 0.218 mM | < 7.5 mM | >7.5 ^b mM | 42 ^c mN m^−1 | 44% | 39% | O=c1c(NCCCS(=O)(=O)O)c(Nc2ccc(C(F)(F)F)cc2)c1=O [SSA 4]
4 | > 1.5 mM | 1.43 mM | 0.83 mM | 0.661 mM | 0.585 mM | > 1.5 mM | > 1.5 mM | > 1.5 mM | > 1.5 mM | 1.15 mM | > 1.5 mM | 1.14 mM | 0.727 mM | 0.563 mM | 0.49 mM | – | >10.0 ^b mM | 41 ^c mN m^−1 | 43% | 39% | O=C(O)CNC(=S)Nc1ccc(C(F)(F)F)cc1 [SSA 2]
5 | > 1.5 mM | 0.302 mM | 0.129 mM | 0.1 mM | 0.234 mM | > 1.5 mM | > 1.5 mM | 0.683 mM | 0.54 mM | 0.429 mM | > 1.5 mM | 0.641 mM | 0.13 mM | 0.088 mM | 0.061 mM | < 2.78 mM | >2.8 ^b mM | 43 ^c mN m^−1 | 33% | 37% | O=C(O)CNc1c(Nc2ccc(C(F)(F)F)cc2)c(=O)c1=O [SSA 5]
